Molecules are shown by their SMILES.

By EC50 is commonly meant the concentration that produces a half-maximal response. A high value points to lower potency in that assay. In general, IC50 refers to the midpoint of a concentration-inhibition curve.

Data set [1] is described as follows: DPPH radical-scavenging assay. The conditions noted are these: 200 μM DPPH, compounds 10–160 μM, 30 min, room temperature. As to the method:
The DPPH radical-scavenging activity was measured in an ethanol mixture containing 200 μM DPPH (Sigma-Aldrich) radical solution and the tested compounds (10–160 μM). The solution was vortexed and incubated for 30 min at room temperature. The scavenging capacity was measured by monitoring the decrease in absorbance at 517 nm with a microplate spectrophotometer (Multiskan GO, Thermo Fisher Scientific). The half maximal effective concentrations (EC50) for inhibition of the formation of DPPH radicals were calculated using the interpolation method.

The subject of data set [2] is ATXN3/Q75-GFP. Put plainly: Western blot of soluble ATXN3/Q75-GFP protein. It counts as cell-based, human. The settings on record: 10 μM compound; without compound = 100%. As to the method:
Cells were lysed using buffer (50 mM Tris-HCl pH8.0, 0.5% sodium deoxycholate, 0.1% SDS, 150 mM NaCl, 2 mM EDTA, 50 mM NaF and 1% NP40) containing the protease inhibitor cocktail (Sigma-Aldrich). After sonication, the lysates were centrifuged at 12,000 × g for 10 min at 4°C. Protein concentrations were determined using a protein assay kit (Bio-Rad, Hercules, CA, USA), with albumin as standards. Total soluble proteins (20 μg) were electrophoresed on 10% SDS-polyacrylamide gel and transferred onto polyvinylidene difluoride membrane (Sigma-Aldrich) by reverse electrophoresis. After being blocked, the membrane was stained with ATXN3 (1:1000; GeneTex, Irvive, CA, USA), GFP (1:1000; Santa Cruz Biotechnology, Santa Cruz, CA, USA), CD68 (1:1000; Cell Signaling), IκBα (1:1000; Cell Signaling), p-IκBα (S32/36) (1:1000; Cell Signaling), P65 (1:1000; Cell Signaling), p-P65 (S536) (1:1000; Cell Signaling), JNK (1:1000; Cell Signaling), p-JNK (T183/Y185) (1:500; Cell Signaling), JUN, p-JUN (S63) (1:1000; Cell Signaling), P38 (1:1000; Cell Signaling), p-P38 (T180/Y182) (1:1000; Cell Signaling), STAT1 (1:1000; Cell Signaling), p-STAT1 (S727) (1:1000; Cell Signaling), or GAPDH (1:5000; MDBio Inc., Taipei, Taiwan) primary antibody at room temperature 2 h or 4°C overnight. The immune complexes were detected using horseradish peroxidase (HRP)-conjugated goat anti-mouse or goat anti-rabbit IgG antibody (1:5000; GeneTex) and chemiluminescent HRP substrate (Millipore, Billerica, MA, USA).

In data set [3] the test system is ATXN3/Q75-GFP. Put plainly: High content polyQ aggregation analysis, ATXN3/Q75-GFP SH-SY5Y cells. The class given is cell-based, human. The conditions noted are these: 10 μM compound, ATXN3/Q75-GFP-expressing cells; for reduction of aggregation: vs untreated 2.8%. As to the method:
(§1) ATXN3/Q75-GFP SH-SY5Y cells were plated on 24-well (1 × 10^4/well) dishes, and retinoic acid (10 μM; Sigma-Aldrich) was added to initiate neuronal differentiation. On the second day, cells were treated with the tested compound (10 μM) for 8 h before ATXN3-GFP expression induction by adding doxycycline (5 μg/ml). For comparison, cells without inducing ATXN3/Q75-GFP expression were included. The cells were kept in the medium containing retinoic acid, doxycycline and test compound for 6 days. For the cells with inflammatory stimulation, HMC3 conditioned medium with (CM/+IFN-γ) or without (CM/–IFN-γ) IFN-γ stimulation was added at a 1:1 ratio in the last two days. On the eighth day, cells were stained with Hoechst 33342 (0.1 μg/ml; Sigma-Aldrich) for 30 min, and images of the cells were automatically obtained using an ImageXpressMICRO high content analysis (HCA) system (Molecular Devices, San Jose, CA, USA). Excitation/emission filters were at 482/536 and 377/447 nm for enhanced GFP and Hoechst 33342, respectively. Aggregation was determined by Transfluor technology based on GFP fluorescence intensity. Neurite length, process and branch of ATXN3/Q75-GFP-expressing cells were analyzed by using Metamorph microscopy automation and image analysis software (neurite outgrowth application module, Molecular Devices). In addition, cells were fixed, permeated and stained with neuronal class III β-tubulin (TUBB3) antibody (1:1000; Covance, Princeton, NJ, USA), followed by anti-rabbit Alexa Fluor ®555 antibody (1:1000; Thermo Fisher Scientific) for neurite outgrowth analysis. To quantify neurite outgrowth, microscopic images were segmented with multi-colored mask to assign each outgrowth to a cell body for quantification. In general, 10^4 cells in each biological replicate were analyzed.

Data set [4] is described as follows: MTT cytotoxicity assay, SH-SY5Y cells. The class given is cell-based. The settings on record: human, 0.1−100 μM, 6 days treatment, read-out: IC50 (cytotoxicity, MTT viability). As to the method: (§2) To evaluate compound cytotoxicity, 2 × 10^4 (HMC3) or 1 × 10^4 (SH-SY5Y) cells were plated on 48-well dishes, grown for 20 h, and treated with the tested compounds (0.1−100 μM). After 28 h (HMC3) or 6 days (SH-SY5Y), 20 μl of 3-(4,5-dimethylthiazol-2-yl)-2,5-diphenyltetrazolium bromide (MTT) (5 mg/ml) was added to the cells at 37°C for 3 h. 200 μl of lysis buffer (10% Triton X-100, 0.1 N HCl, 18% isopropanol) was then added to dishes and the absorbance of the insoluble purple formazan product at OD 570 nm was read by a FLx800 fluorescence microplate spectrophotometer (Bio-Tek, Winooski, VT, USA). The IC50 of the tested compounds were calculated using the interpolation method.
On the technique in general: Formazan colour is commonly taken as a measure of viable cells.

The nature of data set [5]: MTT cytotoxicity assay, HMC3 cells. The conditions noted are these: human, 0.1−100 μM, 28 h treatment, read-out: IC50 (cytotoxicity, MTT viability). It counts as cell-based. As to the method: as §2
The test system of data set [6] is ATXN3/Q75-GFP SH-SY5Y cells. The data set is described as follows: Neurite outgrowth analysis, ATXN3/Q75-GFP SH-SY5Y cells. It counts as cell-based, human. The settings on record: 10 μM compound, ATXN3/Q75-GFP-expressing cells; for neurite branch: untreated 1.0; for neurite process: untreated 1.8; for neurite length: untreated 23.6 μm. As to the method: as §1
The test system of data set [7] is ATXN3/Q75-GFP SH-SY5Y cells. The data set is described as follows: Neurite outgrowth analysis, CM/+IFN-γ-inflamed ATXN3/Q75-GFP SH-SY5Y cells. It counts as cell-based, human. The conditions noted are these: 10 μM compound; for neurite process: untreated 1.4; for neurite length: untreated 14.4 μm. As to the method:
as §1

Regarding `O=c1c(O)c(-c2ccc(O)cc2)oc2cc(O)cc(O)c12` [Kaempferol, kaempferol, reference compound], the EC50 in data set [1] is 27 µM.
In the case of `O=[N+]([O-])c1cccc2nc(/C=C/c3cc4ccccc4nc3N3CCOCC3)ccc12` [VB-037], the “soluble ATXN3/Q75-GFP protein (Western blot, GFP antibody)” value (“soluble ATXN3/Q75-GFP protein” below) in data set [2] is recorded as 144−173%. In addition, the reduction of aggregation in data set [3] was 12–25%. Also, in data set [4], the IC50 at 6 days was 78 µM. Also, in data set [5], the concentration for half-maximal inhibition (IC50) at 28 h was over 100 µM. Besides, in data set [6], the neurite branch stood at 1.2, the neurite process was 2.0–2.1 and the neurite length was 26.9–27.2 μm. For the same compound, the “DPPH scavenging activity EC50” value in data set [1] is reported as “no detectable DPPH-scavenging activity”.
`O=C(c1ccccc1)c1cc2c(O)cccc2oc1=O` [LM-031, 3-benzoyl-5-hydroxychromen-2-one]: in data set [2], the “soluble ATXN3/Q75-GFP protein” value is listed as 144−173%. Moreover, the reduction of aggregation in data set [3] was 12–25%. Further, the IC50 at 6 days in data set [4] is over 100 µM. Also, in data set [5], the concentration for half-maximal inhibition (IC50) at 28 h was over 100 µM. The neurite branch in data set [7] (untreated 0.6) stood at 0.8; in data set [6], 1.2. For the same compound, the values for the neurite process in data set [7] and in data set [6] were 1.6 and 2.0–2.1, respectively. The neurite length is listed as 17.3–18.0 μm in data set [7] and 26.9–27.2 μm in data set [6]. Also, in data set [1], the half-maximal effective concentration (EC50) turned out to be 100 µM.
As for `CC(=O)/C(=C/c1ccccc1[N+](=O)[O-])Cc1c[nH]c2ccccc12` [NC009-1], the “soluble ATXN3/Q75-GFP protein” value in data set [2] is recorded as 144−173%. Further, in data set [3], the reduction of aggregation is on record as 12–25%. Besides, the IC50 at 6 days in data set [4] was 52 µM. Also, in data set [5], the IC50 at 28 h is over 100 µM. Further, in data set [7], the neurite process was determined as 1.6 and the neurite length is on record as 17.3–18.0 μm. Besides, in data set [6], the neurite branch was determined as 1.2, the neurite process is on record as 2.0–2.1 and the neurite length is on record as 26.9–27.2 μm. Also, the “DPPH scavenging activity EC50” value in data set [1] is given as “no detectable DPPH-scavenging activity”.
As to `CCCCC/C=C\C/C=C\C/C=C\C/C=C\CCCC(=O)Nc1ccc(O)cc1` [AM404, reference compound], the “polyQ aggregation (cells with aggregates)” value in data set [3] (untreated 2.8%) is reported as “not reducing ATXN3/Q75 aggregation”. Moreover, in data set [4], the half-inhibitory concentration (IC50) at 6 days came out at 49 µM. For the same compound, the 50% inhibitory concentration (IC50) at 28 h in data set [5] turned out to be 84 µM. Further, in data set [7], the neurite process turned out to be 1.6 and the neurite length is on record as 17.3–18.0 μm. Further, in data set [6], the neurite branch worked out at 1.4, the neurite process stood at 2.2 and the neurite length is on record as 30.8 μm. In data set [1], this compound came in with an EC50 of 141 µM.

Values taken from publication PMC7762503, “Pathomechanism characterization and potential therapeutics identification for SCA3 targeting neuroinflammation” (Aging (Albany NY), 2020).
